Reference: the supplement of paper PMC10627819

Tests used:
[1] = test system: S. aureus DSM 20231; test: fitness (endpoint OD595 vs no drug) (fraction); higher = more growth
Method in brief: (§1)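 Bacterial fitness was scored as optical density at the stationary-phase transition relative to the robust mean of no-drug control wells. Scores are capped at 1. The growth data were OD595 readings every 30 min for 14 h at 37 °C, background-subtracted against the first reading, from 384-well plates inoculated at OD595 0.01 in TSB, LB Lennox or CY.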

[2] = test system: S. pneumoniae D39V; test: as above
Method in brief: as §1
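Further: OD595 on entry to stationary phase over no-drug wells; at most 1.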

CC(=O)Oc1ccccc1C(=O)O [Acetylsalicylic acid] + CC1=C\[C@@H](O)CC(=O)Cc2nc(co2)C(=O)N2CCC=C2C(=O)O[C@H](C(C)C)[C@H](C)/C=C/C(=O)NC\C=C\1 [Virginiamycin M1]
fitness
Conditions | first compound 250 µg/mL | first compound 500 µg/mL | first compound 1000 µg/mL
[1], partner 0.0625 µg/mL | 0.86 | 0.764 | 0.564
[1], partner 0.125 µg/mL | 0.922 | – | –
[1], partner 0.25 µg/mL | 0.877 | 0.715 | 0.503
[2], partner 0.5 µg/mL | 0.967 | 0.964 | 0.872
[2], partner 1 µg/mL | 0.914 | 0.961 | –
[2], partner 2 µg/mL | 0.933 | 0.903 | –

fitness, one replicate
Conditions | first compound 250 µg/mL | first compound 500 µg/mL | first compound 1000 µg/mL
[1], partner 0.5 µg/mL | 0.776 | 0.789 | 0.371
[1], partner 1 µg/mL | 0.818 | 0.781 | 0.389
[2], partner 0.15 µg/mL | 0.954 | 0.988 | 0.949
[2], partner 0.3 µg/mL | 0.951 | 0.938 | 0.918

CC(=O)Oc1ccccc1C(=O)O [Acetylsalicylic acid] + CC(=O)NC[C@H]1CN(c2ccc(N3CCOCC3)c(F)c2)C(=O)O1 [Linezolid]
fitness
Conditions | first compound 250 µg/mL | first compound 500 µg/mL | first compound 1000 µg/mL
[1], partner 0.125 µg/mL | 0.868 | – | 0.509
[1], partner 0.25 µg/mL | 0.582 | 0.486 | 0.275
[1], partner 0.5 µg/mL | 0.203 | 0.159 | 0.117
[2], partner 0.105 µg/mL | 0.879 | 0.866 | 0.776
[2], partner 0.2 µg/mL | 0.675 | 0.623 | 0.463
[2], partner 0.21 µg/mL | 0.756 | 0.773 | 0.712
[2], partner 0.4 µg/mL | 0.598 | 0.582 | 0.439
[2], partner 0.42 µg/mL | 0.573 | 0.561 | 0.442
[2], partner 0.8 µg/mL | 0.252 | 0.24 | 0.208

[1], partner 1 µg/mL, one replicate
Conditions | fitness
first compound 250 µg/mL | 0.0592
first compound 500 µg/mL | 0.0468
first compound 1000 µg/mL | 0.0354

CC(=O)Oc1ccccc1C(=O)O [Acetylsalicylic acid] + CCCCCCCCCC(=O)N[C@@H]1[C@H]([C@@H]([C@H](O[C@H]1OC2=C3C=C4C=C2OC5=C(C=C(C=C5)[C@H]([C@H]6C(=O)N[C@@H](C7=C(C(=CC(=C7)O)OC8[C@H]([C@H]([C@@H]([C@H](O8)CO)O)O)O)C9=C(C=CC(=C9)[C@H](C(=O)N6)NC(=O)[C@@H]4NC(=O)[C@@H]1C2=CC(=CC(=C2)OC2=C(C=CC(=C2)[C@H](C(=O)N[C@H](CC2=CC(=C(O3)C=C2)Cl)C(=O)N1)N)O)O)O)C(=O)O)O[C@H]1[C@@H]([C@H]([C@@H]([C@H](O1)CO)O)O)NC(=O)C)Cl)CO)O)O [Teicoplanin]
fitness, [1], main component drawn
Conditions | partner 0.1562 µg/mL | partner 0.3125 µg/mL | partner 0.625 µg/mL
first compound 250 µg/mL | 0.957 | 0.98 | 0.979
first compound 500 µg/mL | 0.887 | 0.894 | 0.871

CC(=O)Oc1ccccc1C(=O)O [Acetylsalicylic acid] + CCC[C@@H]1C[C@@H](C(=O)N[C@@H]([C@H]2O[C@H](SC)[C@H](O)[C@@H](O)[C@H]2O)[C@@H](C)O)N(C)C1 [Lincomycin]
fitness
Conditions | partner 0.1 µg/mL | partner 0.2 µg/mL | partner 0.215 µg/mL | partner 0.4 µg/mL | partner 0.43 µg/mL | partner 0.8 µg/mL | partner 0.86 µg/mL
[1], first compound 250 µg/mL | 0.863 | 0.84 | – | – | – | – | –
[1], first compound 500 µg/mL | 0.81 | 0.795 | – | – | – | – | –
[1], first compound 1000 µg/mL | – | – | – | 0.204 | – | – | –
[2], first compound 250 µg/mL | – | 0.528 | 0.866 | 0.389 | 0.748 | 0.116 | 0.377
[2], first compound 500 µg/mL | – | 0.455 | 0.824 | 0.368 | 0.749 | 0.0711 | 0.389
[2], first compound 1000 µg/mL | – | 0.344 | 0.841 | 0.213 | 0.746 | 0.0378 | 0.35

CC(=O)Oc1ccccc1C(=O)O [Acetylsalicylic acid] + CCC[C@@H]1C[C@@H](C(=O)N[C@@H]([C@H]2O[C@H](SC)[C@H](O)[C@@H](O)[C@H]2O)[C@H](C)Cl)N(C)C1 [Clindamycin]
fitness
Conditions | first compound 250 µg/mL | first compound 500 µg/mL | first compound 1000 µg/mL
[1], partner 0.0312 µg/mL | – | – | 0.28
[1], partner 0.0625 µg/mL | 0.143 | 0.169 | 0.114
[1], partner 0.125 µg/mL | 0.0488 | 0.0833 | 0.0683
[2], partner 0.0125 µg/mL | 0.759 | 0.697 | 0.508
[2], partner 0.015 µg/mL | 0.857 | 0.771 | 0.528
[2], partner 0.025 µg/mL | 0.468 | 0.435 | 0.37
[2], partner 0.03 µg/mL | 0.677 | 0.574 | 0.37
[2], partner 0.05 µg/mL | 0.164 | 0.166 | 0.129
[2], partner 0.06 µg/mL | 0.331 | 0.246 | 0.104

CC(=O)Oc1ccccc1C(=O)O [Acetylsalicylic acid] + CCN(CC)CCOC(=O)c1ccc(N)cc1 [Procaine]
fitness
Conditions | partner 85.5 µg/mL | partner 171 µg/mL | partner 342 µg/mL
[1], first compound 250 µg/mL | 0.916 | 0.971 | 0.963
[1], first compound 500 µg/mL | 0.849 | 0.896 | –
[2], first compound 250 µg/mL | ≥ 1 | 0.989 | 0.966
[2], first compound 500 µg/mL | ≥ 1 | 0.995 | 0.97
[2], first compound 1000 µg/mL | 0.922 | 0.86 | 0.89

CC(=O)Oc1ccccc1C(=O)O [Acetylsalicylic acid] + CC[C@H]1OC(=O)[C@H](C)[C@@H](O[C@H]2C[C@@](C)(OC)[C@@H](O)[C@H](C)O2)[C@H](C)[C@@H](O[C@@H]2O[C@H](C)C[C@H](N(C)C)[C@H]2O)[C@](C)(O)C[C@@H](C)CN(C)[C@H](C)[C@@H](O)[C@]1(C)O [Azithromycin]
fitness, [1]
Conditions | first compound 250 µg/mL | first compound 500 µg/mL | first compound 1000 µg/mL
partner 0.125 µg/mL | 0.806 | 0.714 | 0.601
partner 0.25 µg/mL | 0.83 | 0.748 | 0.614
partner 0.5 µg/mL | 0.702 | – | 0.597

CC(=O)Oc1ccccc1C(=O)O [Acetylsalicylic acid] + CN1C2=CC=CC=C2N=C3C1=CC=CC3=O [Pyocyanin]
fitness
Conditions | first compound 250 µg/mL | first compound 500 µg/mL | first compound 1000 µg/mL
[1], partner 1.25 µg/mL | 0.826 | 0.679 | 0.525
[1], partner 2.5 µg/mL | 0.751 | 0.607 | 0.437
[1], partner 5 µg/mL | 0.611 | 0.551 | 0.268
[2], partner 0.325 µg/mL | ≥ 1 | 0.995 | 0.917
[2], partner 0.65 µg/mL | 1 | 0.98 | 0.681
[2], partner 1.3 µg/mL | 0.863 | 0.722 | 0.467

CC(=O)Oc1ccccc1C(=O)O [Acetylsalicylic acid] + CN(C)[C@@H]1C(O)=C(C(N)=O)C(=O)[C@@]2(O)C(O)=C3C(=O)c4c(O)ccc(Cl)c4[C@@](C)(O)[C@H]3C[C@@H]12 [Chlortetracycline]
[1], partner 0.006 µg/mL, one replicate
Conditions | fitness
first compound 250 µg/mL | 0.686
first compound 500 µg/mL | 0.525
first compound 1000 µg/mL | 0.342

fitness
Conditions | partner 0.012 µg/mL | partner 0.024 µg/mL | partner 0.048 µg/mL | partner 0.375 µg/mL | partner 0.75 µg/mL | partner 1.5 µg/mL
[1], first compound 250 µg/mL | 0.525 | – | – | – | – | –
[1], first compound 500 µg/mL | 0.467 | 0.221 | 0.0964 | – | – | –
[1], first compound 1000 µg/mL | 0.21 | 0.0899 | 0.0347 | – | – | –
[2], first compound 250 µg/mL | 0.842 | 0.658 | 0.322 | 0.123 | 0.119 | 0.101
[2], first compound 500 µg/mL | 0.831 | 0.606 | 0.281 | 0.129 | 0.0804 | 0.138
[2], first compound 1000 µg/mL | 0.669 | 0.47 | 0.297 | 0.0772 | 0.0378 | 0.0721

CC(=O)Oc1ccccc1C(=O)O [Acetylsalicylic acid] + CN(N=O)C(=O)N[C@@H](C=O)[C@@H](O)[C@H](O)[C@H](O)CO [Streptozotocin]
fitness
Conditions | first compound 250 µg/mL | first compound 500 µg/mL | first compound 1000 µg/mL
[1], partner 0.15 µg/mL | 0.778 | 0.635 | –
[1], partner 0.3 µg/mL | 0.771 | 0.584 | 0.484
[1], partner 0.6 µg/mL | 0.64 | 0.578 | 0.414
[2], partner 1.2 µg/mL | 0.933 | 0.91 | –
[2], partner 2.4 µg/mL | 0.934 | 0.9 | –
[2], partner 4.8 µg/mL | 0.933 | 0.824 | –

CC(=O)Oc1ccccc1C(=O)O [Acetylsalicylic acid] + CN[C@@H]1[C@H](O)[C@H](NC)[C@H]2O[C@@]3(O)C(=O)C[C@@H](C)O[C@H]3O[C@@H]2[C@H]1O [Spectinomycin]
fitness
Conditions | partner 4 µg/mL | partner 8 µg/mL | partner 16 µg/mL
[1], first compound 250 µg/mL | 0.871 | 0.866 | –
[2], first compound 250 µg/mL | 0.934 | 0.911 | 0.817
[2], first compound 500 µg/mL | 0.862 | 0.801 | 0.691
[2], first compound 1000 µg/mL | 0.64 | 0.601 | 0.536

fitness, [1], one replicate
Conditions | first compound 250 µg/mL | first compound 500 µg/mL | first compound 1000 µg/mL
partner 32 µg/mL | 0.541 | 0.631 | 0.101
partner 64 µg/mL | 0.253 | 0.32 | 0.042

CC(=O)Oc1ccccc1C(=O)O [Acetylsalicylic acid] + CN[C@H](CC(C)C)C(=O)N[C@H]1C(=O)N[C@@H](CC(N)=O)C(=O)N[C@H]2C(=O)N[C@H]3C(=O)N[C@H](C(=O)N[C@H](C(=O)O)c4cc(O)cc(O)c4-c4cc3ccc4O)[C@H](O)c3ccc(c(Cl)c3)Oc3cc2cc(c3O[C@@H]2O[C@H](CO)[C@@H](O)[C@H](O)[C@H]2O[C@H]2C[C@](C)(N)[C@H](O)[C@H](C)O2)Oc2ccc(cc2Cl)[C@H]1O [Vancomycin]
fitness
Conditions | first compound 250 µg/mL | first compound 500 µg/mL | first compound 1000 µg/mL
[1], partner 0.1875 µg/mL | 0.871 | 0.79 | 0.592
[1], partner 0.375 µg/mL | 0.953 | – | 0.562
[1], partner 0.75 µg/mL | 0.947 | – | –
[2], partner 0.03125 µg/mL | 0.956 | 0.934 | 0.839
[2], partner 0.0625 µg/mL | 0.894 | 0.885 | 0.826
[2], partner 0.125 µg/mL | 0.927 | 0.917 | 0.84
[2], partner 0.25 µg/mL | 0.984 | 0.961 | 0.83
[2], partner 0.5 µg/mL | 0.105 | 0.0715 | 0.0849

CC(=O)Oc1ccccc1C(=O)O [Acetylsalicylic acid] + CO/N=C(\C(=O)N[C@@H]1C(=O)N2C(C(=O)O)=C(COC(C)=O)CS[C@H]12)c1csc(N)n1 [Cefotaxime]
fitness
Conditions | partner 0.0018 µg/mL | partner 0.0035 µg/mL | partner 0.007 µg/mL | partner 0.039 µg/mL | partner 0.078 µg/mL | partner 0.156 µg/mL | partner 0.312 µg/mL
[1], first compound 250 µg/mL | – | – | – | 0.706 | 0.695 | 0.641 | 0.605
[1], first compound 500 µg/mL | – | – | – | 0.614 | 0.608 | 0.561 | 0.507
[1], first compound 1000 µg/mL | – | – | – | 0.509 | 0.443 | 0.343 | 0.148
[2], first compound 250 µg/mL | 0.984 | 0.967 | 0.936 | – | – | – | –
[2], first compound 500 µg/mL | ≥ 1 | 0.992 | 0.962 | – | – | – | –
[2], first compound 1000 µg/mL | 0.97 | 0.89 | 0.823 | – | – | – | –
